Experiments:
[1] = Plasma pharmacokinetics by isotope dilution mass spectrometry; assay type: in vivo, mouse; settings: 80 mg/kg
Description: Purified macrocycle inhibitors were dissolved in DMSO-d6 ( 200 to 250 mg/mL stock solutions). […] The inhibitor concentration was calculated using the integral of the CH2Cl2 singlet (δ 5.76 ppm, 2H)^57, which appears in an uncluttered region of these spectra^51,58. For injectable formulations (10 mL/kg i.p. injection volume), the macrocycle inhibitor solution in DMSO-d6 (200-250 mg/mL, based on free-base molecular weight) was combined with 1:20 w/w Captisol® powder (CyDex)^59. The resulting slurry was supplemented with DMSO-d6 to make up to 5% of the final formulation volume, mixed thoroughly and dissolved with sterile saline solution (0.9% NaCl). Vehicle controls were identically formulated with 5% DMSO-d6 and equal amount of Captisol®. The formulated solutions of inhibitor were clear with no visible particles, and were stored overnight at 4° C. prior to injection. Stable isotope dilution LC-MS, pharmacokinetics, and tissue distribution measurements. […] Tissue samples ( 100 mg) fromb 6K-treated mice and vehicle controls were weighed and disrupted in Dounce homogenizers with PBS buffer (0.5 mL/100 mg sample), supplemented with 5 μM heavy-6bK and protease inhibitor cocktail (1 tablet/50 mL PBS, Roche diagnostics). The lysate was incubated on ice for 30 min, sonicated 5 min and centrifuged at 13,000 g for 5 min. The bulk of supernatant proteins were precipitated by denaturation at 95° C. for 5 min, removed by centrifugation.

[2] = tested on: C57BL/6J mice; test: Insulin tolerance test, glucagon challenge and amylin challenge; assay type: in vivo, mouse
Description: Wild-type lean C57BL/6J and diet-induced obese (DIO) C57BL/6J age-matched male mice were purchased from Jackson Laboratories, and used at ages 14-16, and 24-26 weeks respectively (>20 weeks of high-fat diet for the DIO mice). GCGR^/ mice were bred from heterozygous mice and used between 11 and 17 weeks. […] Blood glucose was measured from tail nicks using AccuCheck (Aviva) meters.
Insulin Tolerance Test (ITT), Glucagon Challenge (GC) and Amylin Challenge (AC). For hormone challenges animals were fasted individually housed as described above. For ITT the fasting period was 6 h (7 am to 1 pm), and for glucagon and amylin challenges the fasting period was 14 h (8 pm-10 am). Inhibitor or vehicle alone was injected i.p. as previously described, 30 min prior to each hormone challenge. […] Glucagon (Eli Lilly) was injected s.c. 100 μg/kg formulated in 0.5% BSA sterile saline (5 mL/kg). Amylin (Bachem) was injected s.c. 250 μg/kg formulated in sterile saline (5 mL/kg). Blood glucose was measured at timepoints −45, 0, 15, 30, 45, 60 and 75 min with reference to the time of hormone injection, by microsampling from a tail nick as described above. Values are reported as mean±S.E.M. Statistics were performed using a two-tail Student's t-test, and significance levels shown in the figures are *p<0.05 versus vehicle control group or **p<0.01 versus vehicle control group.
Blood collection and plasma hormone measurements. Blood was collected in EDTA-coated tubes (BD Microtainer®) from trunk bleeding (˜500 μL) after CO2-euthanasia for all hormone assays. The plasma was immediately separated from red blood cells by centrifugation 10 min at 1800 g, aliquoted, frozen over dry ice and stored at −80° C. […] Values are reported as mean±S.E.M. Statistics were performed using a two-tail Student's t-test, and significance levels shown in the figures are *p<0.05 versus vehicle control group or **p<0.01 versus vehicle control group.

[3] = tested on: C57BL/6J mice; test: Tolerability of inhibitor doses in mice; assay type: in vivo; settings: 80 mg/kg lean, 60 mg/kg DIO mice, i.p.
Description: In vivo studies, general information. Wild-type C57BL/6J and diet-induced obese (DIO) C57BL/6J age-matched male adult mice were purchased from Jackson Laboratories. The age range was 13 to 15 weeks for lean mice, and 24 to 26 weeks for DIO mice. All animals were individually housed on a 14-h light, 10-h dark schedule at the Biology Research Infrastructure (BRI), Harvard University. Cage enrichment included cotton bedding and a red plastic hut. Water and food were available ad libitum, consisting respectively of normal chow (Prolab® RHM 3000) or high-fat diet (60 kcal % fat, D12492, Research Diets Inc.). All animal care and experimental procedures were in accordance with the standing committee on the Use of Animals in Research and Teaching at Harvard University, the guidelines and rules established by the Faculty of Arts and Sciences' Institutional Animal Care and Use Committee (IACUC), and the National Institutes of Health Guidelines for the Humane Treatment of Laboratory Animals. Glucagon-receptor knock-out (GCGR^−/−) mice were housed with a 14-h light and 10-h dark schedule and treated in accordance with the guidelines and rules approved by the IACUC at Albert Einstein College of Medicine, NY. Power analysis to determine animal cohort numbers was based on preliminary results and literature precedent, usually requiring between 5 and 8 animals per group. […]

[4] = tested on: Wild-type mice; test: Gastric emptying measurements; assay type: in vivo, mouse; settings: 30 minutes post-gavage, vs vehicle and bisepi-6bK controls
Description: Trunk blood was obtained for plasma hormone measurements using the Multiplexed Mouse Metabolic Hormone panel (Milliplex, EMD Millipore) on a Luminex FlexMap 3D instrument. Gastric emptying was measured by dissection of stomachs 30 min after an oral glucose bolus (3.0 g/kg, 10 mL/kg) in sterile saline containing 0.1 mg/mL phenol red.
Gastric emptying measurements. Mice were fasted 14 h (8 pm to 10 am). Inhibitor or vehicle alone was injected i.p. as previously described, followed 30 min later by an oral glucose bolus (3.0 g/kg, 10 mL/kg) in sterile saline containing 0.1 mg/mL phenol red. At 30 min, the stomach was promptly dissected after CO2-euthanasia and stored on ice. The stomach contents were extracted into 2.5 mL EtOH (95%) by homogenization for 1 min using a probe sonicator. Tissue debris were decanted by centrifugation at 4000 g, followed by clearing at 15000 g for 15 min. The supernatant (1 mL) was mixed with 0.5 mL of aqueous NaOH (20 mM), and incubated at −20° C. for 1 h. The solution was centrifuged at 15,000 g for 15 min, and absorbance was determined at 565 nm. The spectrophotometer was blanked with the stomach contents of a mouse treated with colorless glucose solution. The absorbance was adjusted to the amount of glucose solution dosed to each mouse. Values are reported as mean±S.E.M relative to the original phenol red glucose solution. […]

NCCCC[C@@H]1NC(=O)/C=C/C(=O)N[C@H](C(N)=O)CCCCNC(=O)[C@@H](Cc2ccc(C(=O)c3ccccc3)cc2)NC(=O)[C@H](CC2CCCCC2)NC1=O [Compound 6bK]
plasma concentration relative to IC50 for mouse IDE ([1]; 30 min post-injection): ~1000 fold
time at which plasma levels were detectable post-injection ([1]; mouse, in vivo, ip): 5 min
time plasma levels maintained at a detectable level ([1]; mouse, in vivo, ip): at least 4 h
adverse observations after high-dose insulin ([2]; 80 mg/kg i.p. plus insulin 1.0 U/kg, sacrificed at 75 min): lethargy and hypothermia
plasma level of the hormone injected at the end of the procedure ([2]; insulin, amylin or glucagon challenge, lean mice, vs control): remained elevated
blood glucose response to amylin challenge ([2]; lean mice, 80 mg/kg, amylin s.c. 250 μg/kg, vs vehicle): hyperglycemia
blood glucose response to glucagon challenge ([2]; lean mice, 80 mg/kg, glucagon s.c. 100 μg/kg, vs vehicle): hyperglycemia
blood glucose response in insulin tolerance test ([2]; mice, 6bK 80 mg/kg i.p. 30 min before s.c. insulin, vs vehicle): lower hypoglycemia
insulin levels in insulin tolerance test ([2]; mice, 6bK 80 mg/kg, vs vehicle controls, p<0.01): higher
hypoglycemic response to a high dose of insulin ([2]; non-fasted male C57BL/6J mice, 80 mg/kg i.p., i.p. insulin 1.0 U/kg): Increased hypoglycemic response
tolerability [3]: well tolerated
slower gastric emptying of a labeled glucose solution [4]: 2 fold

From patent US20160282364A1, “ASSAY FOR INSULIN-DEGRADING ENZYME (IDE) INHIBITORS” (PRESIDENT AND FELLOWS OF HARVARD COLLEGE, priority 2013, published 2016)
